Experimental data reported in patent US8846684B2 (priority 2011, dated 2014).
Read-outs that look alike come from different tables or passages of the source.

System: WEEV replicon
Assay: microbe, parasite or virus in culture
Assay type: cell-based, Western equine encephalitis virus
Details: Western equine encephalitis virus; for activity at 2 µM: read-out: Activity (% control LUC) 2 μM; for activity at 10 µM: read-out: Activity (% control LUC) 10 μM
[1] = read-out: Activity (% control LUC) 50 μM
[2] = read-out: 50 μM (% control) Luc

Row | Structure (SMILES) | IC50 (read-out: Activity IC50 (μM)) [µM] | activity at 2 µM [%] | activity at 10 µM [%] | activity at 50 µM [1] [%] | IC50 [µM] | activity at 50 µM [2] [%]
1 | O=C(c1cc2ccccc2n1Cc1ccc(Cl)cc1)N1CCC(C(=O)N2CCCC2)CC1 [CCG 102514, (1-(4-chlorobenzyl)-1H-indol-2-yl)(4-(pyrrolidine-1-carbonyl)piperidin-1-yl)methanone] | 23.8 | 83.1 | 66.4 | 10.5 |  | 
2 | Cc1ccc(CCNC(=O)C2CCN(C(=O)c3cc4ccccc4n3Cc3ccc(Cl)cc3)CC2)cc1 [CCG 102518, 1-(1-(4-chlorobenzyl)-1H-indole-2-carbonyl)-N-(4-methylphenethyl)piperidine-4-carboxamide] | 4.2 | 83 | 33.8 | 32.2 |  | 
3 | O=C(NCc1ccccc1)C1CCN(C(=O)c2cc3ccccc3n2Cc2ccc(F)cc2)CC1 [CCG 203880, N-benzyl-1-(1-(4-fluorobenzyl)-1H-indole-2-carbonyl)piperidine-4-carboxamide] | 25 | 134 | 121 | 67 |  | 
4 | O=C(c1cc2ccccc2n1Cc1ccc(Cl)cc1)N1CCC(C(=O)N2CCCCC2)CC1 [CCG 203928, (1-(4-chlorobenzyl)-1H-indol-2-yl)(4-(piperidine-1-carbonyl)piperidin-1-yl)methanone] | 8.1 | 95.1 | 65.4 | 3.4 |  | 
5 | O=C(NCc1ccncc1)C1CCN(C(=O)c2cc3ccccc3n2Cc2ccc(Cl)cc2)CC1 [CCG 203929, 1-(1-(4-chlorobenzyl)-1H-indole-2-carbonyl)-N-(pyridin-4-ylmethyl)piperidine-4-carboxamide] | 6.6 | 99.5 | 51.8 | 36.4 |  | 
6 | CN(Cc1ccccc1)C(=O)C1CCN(C(=O)c2cc3ccccc3n2Cc2ccc(Cl)cc2)CC1 [CCG 203930, N-benzyl-1-(1-(4-chlorobenzyl)-1H-indole-2-carbonyl)-N-methylpiperidine-4-carboxamide] | 18.6 | 110 | 59.5 | 38 |  | 
7 | O=C(c1cc2ccccc2n1Cc1ccc(F)cc1)N1CCN(Cc2ccccc2)CC1 [CCG 203942, (4-benzylpiperazin-1-yl)(1-(4-fluorobenzyl)-1H-indol-2-yl)methanone] | 12.8 | 116 | 73.8 | 48.9 |  | 
8 | O=C(c1cc2ccccc2n1Cc1ccc(F)cc1)N1CCC(C(=O)N2CCCCC2)CC1 [CCG 203945, (1-(4-fluorobenzyl)-1H-indol-2-yl)(4-(piperidine-1-carbonyl)piperidin-1-yl)methanone] | 20 | 85 | 64.4 | 21.3 |  | 
9 | O=C(c1cc2ccccc2n1Cc1ccc(Cl)cc1)N1CCC(C(=O)N2CCC[C@H]2CO)CC1 [CCG 204021, (S)-(1-(4-chlorobenzyl)-1H-indol-2-yl)(4-(2-(hydroxymethyl)pyrrolidine-1-carbonyl)piperidin-1-yl)methanone] | 32.1 | 87.8 | 77.9 | 21.1 |  | 
10 | CN(C)C(=O)C1CCN(C(=O)c2cc3ccccc3n2Cc2ccc(Cl)cc2)CC1 [CCG 204022, 1-(1-(4-chlorobenzyl)-1H-indole-2-carbonyl)-N,N-dimethylpiperidine-4-carboxamide] | 10.4 | 87.3 | 51.9 | 5.8 |  | 
11 | CN1CCN(C(=O)C2CCN(C(=O)c3cc4ccccc4n3Cc3ccc(Cl)cc3)CC2)CC1 [CCG 204023, (1-(4-chlorobenzyl)-1H-indol-2-yl)(4-(4-methylpiperazine-1-carbonyl)piperidin-1-yl)methanone] | 21.4 | 99 | 67.4 | 6 |  | 
12 | O=C(c1cc2ccccc2n1Cc1ccc(Cl)cc1)N1CCC(C(=O)N2CCOCC2)CC1 [CCG 204024, (1-(4-chlorobenzyl)-1H-indol-2-yl)(4-(morpholine-4-carbonyl)piperidin-1-yl)methanone] | 12.3 | 74.9 | 47.4 | 8.3 |  | 
13 | Cc1cccc(CNC(=O)C2CCN(C(=O)c3cc4ccccc4n3Cc3ccc(Cl)cc3)CC2)c1 [CCG 204042, 1-(1-(4-chlorobenzyl)-1H-indole-2-carbonyl)-N-(3-methylbenzyl)piperidine-4-carboxamide] | 9.8 | 93.7 | 59.5 | 64.4 |  | 
14 | O=C(NCc1cccc(Cl)c1)C1CCN(C(=O)c2cc3ccccc3n2Cc2ccc(Cl)cc2)CC1 [CCG 204043, N-(3-chlorobenzyl)-1-(1-(4-chlorobenzyl)-1H-indole-2-carbonyl)piperidine-4-carboxamide] | 28.5 | 78.6 | 60.9 | 53.6 |  | 
15 | O=C(NCc1ccccc1)C1CCN(C(=O)c2cccn2Cc2ccc(Cl)cc2)CC1 [CCG 204054, N-benzyl-1-(1-(4-chlorobenzyl)-1H-pyrrole-2-carbonyl)piperidine-4-carboxamide] | 54.6 | 110 | 108 | 74.5 |  | 
16 | O=C(c1cc2ccccc2n1Cc1ccc(F)cc1)N1CCC(CN2CCCCC2)CC1 [CCG 204055, (1-(4-fluorobenzyl)-1H-indol-2-yl)(4-(piperidin-1-ylmethyl)piperidin-1-yl)methanone] | 13.3 | 89.7 | 69.9 | 40 |  | 

Row | Structure (SMILES) | IC50 (read-out: Activity IC50 (μM)) [µM] | activity at 2 µM [%] | activity at 10 µM [%] | activity at 50 µM [1] [%] | IC50 [µM] | activity at 50 µM [2] [%]
17 | O=C(c1cc2ccccc2n1Cc1ccc(F)cc1)N1CCC(C(O)c2ccccc2)CC1 (stereo not shown) [CCG 204056, (1-(4-fluorobenzyl)-1H-indol-2-yl)(4-(hydroxy(phenyl)methyl)piperidin-1-yl)methanone] | 16 | 99.3 | 71.7 | 8.3 |  | 
18 | COC(=O)c1cccc(NC(=O)C2CCN(C(=O)c3cc4ccccc4n3Cc3ccc(Cl)cc3)CC2)c1 [CCG 204057, Methyl 3-(1-(1-(4-chlorobenzyl)-1H-indole-2-carbonyl)piperidine-4-carboxamido)benzoate] | 35.6 | 87.9 | 54 | 50.9 |  | 
19 | CN(Cc1ccccc1)C(=O)C1CCN(C(=O)c2cc3ccccc3[nH]2)CC1 [CCG 205400, N-benzyl-1-(1H-indole-2-carbonyl)-N-methylpiperidine-4-carboxamide] |  |  |  |  | 27.7 | 29.1
20 | CN(Cc1ccccc1)C(=O)C1CCN(C(=O)c2cc3ccccc3n2Cc2ccccc2)CC1 [CCG 205404, N-benzyl-1-(1-benzyl-1H-indole-2-carbonyl)-N-methylpiperidine-4-carboxamide] |  |  |  |  | 16.9 | 20.5
21 | O=C(NCc1cccnc1)C1CCN(C(=O)c2cc3ccccc3n2Cc2ccc(Cl)cc2)CC1 [CCG 205422, 1-(1-(4-chlorobenzyl)-1H-indole-2-carbonyl)-N-(pyridin-3-ylmethyl)piperidine-4-carboxamide] |  |  |  |  | 11.4 | 7.05
22 | CN(Cc1ccccc1)C(=O)C1CCN(C(=O)c2cc3ccccc3n2C)CC1 [CCG 205428, N-benzyl-N-methyl-1-(1-methyl-1H-indole-2-carbonyl)piperidine-4-carboxamide] |  |  |  |  |  | 77.2
23 | CN1CCC(CNC(=O)C2CCN(C(=O)c3cc4ccccc4n3Cc3ccc(Cl)cc3)CC2)CC1 [CCG 205429, 1-(1-(4-chlorobenzyl)-1H-indole-2-carbonyl)-N-((1-methylpiperidin-4-yl)methyl)piperidine-4-carboxamide] |  |  |  |  |  | 26.8
24 | O=C(c1cc2ccccc2n1Cc1ccc(Cl)cc1)N1CCC(C(=O)N2CCN(Cc3cccnc3)CC2)CC1 [CCG 205430, (1-(4-chlorobenzyl)-1H-indol-2-yl)(4-(4-(pyridin-3-ylmethyl)piperazine-1-carbonyl)piperidin-1-yl)methanone] |  |  |  |  | 13.1 | 3.55
25 | Cc1c(C(=O)N2CCC(C(=O)NCc3ccccc3)CC2)n(Cc2ccc(Cl)cc2)c2ccccc12 [CCG 205431, N-benzyl-1-(1-(4-chlorobenzyl)-3-methyl-1H-indole-2-carbonyl)piperidine-4-carboxamide] |  |  |  |  | > 100 | 48.4
26 | O=C(NCCc1ccncc1)C1CCN(C(=O)c2cc3ccccc3n2Cc2ccc(Cl)cc2)CC1 [CCG 205432, 1-(1-(4-chlorobenzyl)-1H-indole-2-carbonyl)-N-(2-(pyridin-4-yl)ethyl)piperidine-4-carboxamide] |  |  |  |  | 0.53 | 3.75
27 | O=C(NCCc1cccnc1)C1CCN(C(=O)c2cc3ccccc3n2Cc2ccc(Cl)cc2)CC1 [CCG 205433, 1-(1-(4-chlorobenzyl)-1H-indole-2-carbonyl)-N-(2-(pyridin-3-yl)ethyl)piperidine-4-carboxamide] |  |  |  |  | 5.34 | 1.9
28 | Cn1ccc(CNC(=O)C2CCN(C(=O)c3cc4ccccc4n3Cc3ccc(Cl)cc3)CC2)n1 [CCG 205454, 1-(1-(4-chlorobenzyl)-1H-indole-2-carbonyl)-N-((1-methyl-1H-pyrazol-3-yl)methyl)piperidine-4-carboxamide] |  |  |  |  | 76.9 | 46.6
29 | Cn1cnc(CNC(=O)C2CCN(C(=O)c3cc4ccccc4n3Cc3ccc(Cl)cc3)CC2)c1 [CCG 205455, 1-(1-(4-chlorobenzyl)-1H-indole-2-carbonyl)-N-((1-methyl-1H-imidazol-4-yl)methyl)piperidine-4-carboxamide] |  |  |  |  |  | 50.8
30 | O=C(NCCc1ccccn1)C1CCN(C(=O)c2cc3ccccc3n2Cc2ccc(Cl)cc2)CC1 [CCG 205456, 1-(1-(4-chlorobenzyl)-1H-indole-2-carbonyl)-N-(2-(pyridin-2-yl)ethyl)piperidine-4-carboxamide] |  |  |  |  | 22.4 | 24.1
31 | O=C(c1cc2ccccc2n1Cc1ccc(Cl)cc1)N1CCC(C(=O)N2Cc3ccccc3C2)CC1 [CCG 205470, (1-(4-chlorobenzyl)-1H-indol-2-yl)(4-(isoindoline-2-carbonyl)piperidin-1-yl)methanone] |  |  |  |  |  | 51.8
